Results from US20260250318A1, “COMPOSITIONS AND METHODS FOR CROSSING THE BLOOD BRAIN BARRIER” (VOYAGER THERAPEUTICS, INC., priority 2022, published 2026).

Experiments:
Conditions in all cases: synthetic library passage 3, intravenous, relative to wild-type AAV9
[1] = test system: brain, spinal cord, and DRG of the NHPs; test: NGS fold enrichment of synthetic library (passage 3) in NHPs, first cross-species screen; type: in vivo, cynomolgus macaques (Macaca fascicularis)
How it was run: (§1)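 Synthetic capsid library (passage 3) was given intravenously […] to NHPs aged 2-4 years and to BALB/c and C57Bl/6 mice (n=3 each, 6-8 weeks). After about 28 days in vivo, tissue RNA was RT-PCR amplified and NGS-sequenced; values are fold enrichment per variant relative to wild-type AAV9.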

[2] = test system: brain; test: NGS fold enrichment of synthetic library (passage 3) in BALB/c mice, first cross-species screen; type: in vivo
How it was run: as §1

[3] = test system: brain; test: NGS fold enrichment of synthetic library (passage 3) in C57Bl/6 mice, first cross-species screen; type: in vivo
How it was run: as §1

[4] = RNA from spinal cord of NHPs, NGS
[5] = RNA from brain of BALB/c mice, NGS
[6] = RNA from brain of C57Bl/6 mice, NGS

Sequence	Fold enrichment over AAV9 in the brain of NHPs ([1]; RNA NGS, brain of NHPs) [fold]	Fold enrichment over AAV9 in the spinal cord of NHPs ([1]; RNA NGS, spinal cord of NHPs) [fold]	Fold enrichment over AAV9 in the brain of Mice (BALB/c) ([2]; RNA NGS, brain of BALB/c mice) [fold]	Fold enrichment over AAV9 in the brain of Mice (C57Bl/6) ([3]; RNA NGS, brain of C57Bl/6 mice) [fold]	Fold enrichment over AAV9 in the brain of NHPs ([1]; RNA from brain of NHPs, NGS) [fold]	Fold enrichment over AAV9 in the spinal cord of NHPs [1, 4] [fold]	Fold enrichment over AAV9 in the brain of Mice (BALB/c) [2, 5] [fold]	Fold enrichment over AAV9 in the brain of Mice (C57Bl/6) [3, 6] [fold]
GSGQNQQTKVGHSA	1.079	1.256	1.019	0.669	–	–	–	–
GSGQNQQTLPSLSL	1.084	1.758	0.175	0.527	–	–	–	–
GSGQNQQTLRGSLE	–	–	–	–	1.179	1.812	0.354	0.853
GSGQNQQTLSKPWT	1.743	0.253	0.733	0.845	–	–	–	–
GSGQNQQTLTASKE	–	–	–	–	1.333	1.152	1.172	0.981
GSGQNQQTLYSSNT	1.642	1.044	0.368	0.664	–	–	–	–
GSGQNQQTMANGQR	–	–	–	–	1.394	0.216	1.230	1.169
GSGQNQQTMDHNRT	2.130	4.944	0.440	0.642	–	–	–	–
GSGQNQQTMIANIR	1.076	0.000	0.458	0.379	–	–	–	–
GSGQNQQTMLGKPC	–	–	–	–	1.125	0.047	0.992	1.090
GSGQNQQTMPQHKI	1.097	2.394	0.197	0.479	–	–	–	–
GSGQNQQTNLGHTT	–	–	–	–	1.383	1.523	1.281	1.343
GSGQNQQTNRGNPM	1.860	3.402	1.098	1.349	–	–	–	–
GSGQNQQTPGAHKT	1.105	3.827	0.277	0.957	–	–	–	–
GSGQNQQTPLRPPT	1.624	0.352	0.472	0.874	–	–	–	–
GSGQNQQTRLTDLT	2.046	8.470	0.776	0.910	–	–	–	–

Sequence	Fold enrichment over AAV9 in the brain of NHPs ([1]; RNA NGS, brain of NHPs) [fold]	Fold enrichment over AAV9 in the spinal cord of NHPs ([1]; RNA NGS, spinal cord of NHPs) [fold]	Fold enrichment over AAV9 in the brain of Mice (BALB/c) ([2]; RNA NGS, brain of BALB/c mice) [fold]	Fold enrichment over AAV9 in the brain of Mice (C57Bl/6) ([3]; RNA NGS, brain of C57Bl/6 mice) [fold]	Fold enrichment over AAV9 in the brain of NHPs ([1]; RNA from brain of NHPs, NGS) [fold]	Fold enrichment over AAV9 in the spinal cord of NHPs [1, 4] [fold]	Fold enrichment over AAV9 in the brain of Mice (BALB/c) [2, 5] [fold]	Fold enrichment over AAV9 in the brain of Mice (C57Bl/6) [3, 6] [fold]
GSGQNQQTRLVDLT	2.342	9.348	0.490	1.268	–	–	–	–
GSGQNQQTRQEGST	–	–	–	–	1.339	0.000	0.718	0.645
GSGQNQQTSGTTNC	1.854	8.161	0.806	1.040	–	–	–	–
GSGQNQQTSGVLTL	1.553	0.000	0.782	1.104	–	–	–	–
GSGQNQQTSHFPSA	–	–	–	–	1.185	0.325	0.907	0.969
GSGQNQQTSLQDQT	2.505	0.500	0.968	0.315	–	–	–	–
GSGQNQQTSLSNTA	1.959	1.186	1.182	1.567	–	–	–	–
GSGQNQQTSMSNAT	1.501	6.766	0.745	1.605	–	–	–	–
GSGQNQQTSPHNHT	2.761	3.132	0.845	1.524	–	–	–	–
GSGQNQQTSPRLQT	1.100	0.795	1.091	1.156	–	–	–	–
GSGQNQQTSQPLPG	–	–	–	–	1.141	0.080	0.530	0.748
GSGQNQQTSQSPPT	–	–	–	–	1.194	1.208	0.478	0.851
GSGQNQQTSTGVHS	1.660	8.271	1.075	1.039	–	–	–	–
GSGQNQQTSTTPLP	1.052	2.823	0.741	0.828	–	–	–	–
GSGQNQQTSVGFRT	1.077	3.737	0.534	0.648	–	–	–	–
